Our source for the IC50 values is patent US20070265278A1, “2-PHENYL-INDOLES AS PROSTAGLANDIN D2 RECEPTOR ANTAGONISTS” (Aventis Pharmaceuticals Inc., priority 2005, published 2007).

Each structure is given as a SMILES string.

The target of the test is T1, DP receptor (Homo sapiens, UniProt Q13258).
T1 construct: using the human cell line LS174T, which expresses the endogenous DP receptor; endogenous in cells; host or cells: LS174T human cell line
T1 sequence (Q13258 1-359): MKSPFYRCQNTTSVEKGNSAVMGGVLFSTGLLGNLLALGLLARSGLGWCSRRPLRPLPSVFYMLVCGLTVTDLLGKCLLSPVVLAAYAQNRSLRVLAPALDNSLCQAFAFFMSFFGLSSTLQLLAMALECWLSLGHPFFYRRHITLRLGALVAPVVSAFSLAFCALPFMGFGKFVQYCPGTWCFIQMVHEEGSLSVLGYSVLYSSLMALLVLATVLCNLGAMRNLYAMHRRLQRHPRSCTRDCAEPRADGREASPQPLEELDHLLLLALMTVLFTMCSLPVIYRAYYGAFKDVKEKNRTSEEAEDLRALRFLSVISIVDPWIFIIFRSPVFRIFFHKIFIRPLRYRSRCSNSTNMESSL
The test can be described thus: SPA cAMP assay in human LS174 T cells (human DP functional assay). It is filed as cell-based. Particulars: inhibition of PGD2 (15 nM)-stimulated cAMP, LS174T cells expressing endogenous DP receptor. The method, then:
The inhibitory effects of the compounds according to the invention are assessed in a human DP functional assay. A cAMP assay is employed using the human cell line LS174T, which expresses the endogenous DP receptor. The protocol is similar to that described previously (Wright D H, Ford-Hutchinson A W, Chadee K, Metters K M, The human prostanoid DP receptor stimulates mucin secretion in LS174T cells, Br J Pharmacol. 131(8):1537-45 (2000)).
Protocol for SPA cAMP Assay in Human LS174 T Cells
• PGD2 (Cayman Chemical Cat#12010) • IBMX (Sigma Cat# 5879) • cAMP SPA direct screening assay system (Amersham code RPA 559) • 96-well cell plates (Wallac Cat# 1450-516) • Wallac 1450 Microplate Trilux scintillation counter (PerkinElmer) • Plate sealers • Eppendorf tubes • Dulbecco's Phosphate-Buffered Saline (PBS) (Invitrogen Cat#14040-133) • Distilled water • Vortex • Magnetic stirrer and stirrer bars Reagent Preparation:
All reagents should be allowed to equilibrate to room temperature before reconstitution.
Transfer the contents of the bottle to a 500 mL graduated cylinder by repeated washing with distilled water. Adjust the final volume to 500 mL with distilled water and mix thoroughly.
Dissolve each of the lysis reagents 1 and 2 in 200 mL assay buffer respectively. Leave at room temperature for 20 minutes to dissolve.
Add 30 mL of lysis buffer 2 to the bottle. Gently shake the bottle for 5 minutes.
Add 15 mL of lysis buffer 2 to each vial, and gently mix until the contents are completely dissolved.
Add 14 mL lysis buffer 2 to each vial and gently mix until the contents are completely dissolved.
Preparation of Immunoreagent
• 1) Add equal volumes of tracer, antiserum and SPA anti-rabbit reagent to a bottle, ensuring that a sufficient volume of this mixture is prepared for the desired number of wells (150 μL/well). • 2) Mix thoroughly. • 3) This immunoreagent solution should be freshly prepared before each assay and not re-used. Standard • 1) Add 1 mL lysis buffer 1 and gently mix until contents are completely dissolved. • 2) The final solution contains cAMP at a concentration of 512 pmol/mL. • 3) Label 7 polypropylene or polystyrene tubes, 0.2 pmol, 0.4 pmol, 0.8 pmol, 1.6 pmol, 3.2 pmol, 6.4 pmol and 12.8 pmol. • 4) Pipette 500 μL of lysis buffer 1 into all the tubes. • 5) Into the 12.8 pmol tube pipette 500 μL of stock standard (512 pmol/mL) and mix thoroughly. Transfer 500 μL from 12.8 pmol tube to the 6.4 pmol tube and mix thoroughly. Repeat this doubling dilution successively with the remaining tubes.
6) 50 μL aliquots in duplicate from each serial dilution and the stock standard will give rise to 8 standard levels of cAMP ranging from 0.2-25.6 pmol standard
Add 50 μL of […] IBMX into 100 mL PBS to make a final concentration of 100 μM and sonicate at 30° C. for 20 minutes.
Dissolve 1 mg PGD2 (FW, 352.5) in 284 μL DMSO to make 10 mM stock solution and store at […]. Before each assay, it is freshly prepared. Add 3 μL of 10 mM stock solution to 20 mL DMSO, mix it thoroughly, and transfer 10 mL to 40 mL PBS.
Compound dilution is carried out in Biomex 2000 (Beckman) using Method 1_cAMP DP 11 points.
5 μL of each compound from the 10 mM stock compound plates is transferred to the wells of a 96-well plate respectively as below.
Fill the plate with 45 μL of DMSO except column 7 is filled with 28 μL DMSO. Pipette column 1 thoroughly, and transfer 12 μL into column 7 parallel. Perform 1:10 serial dilution from column 1 to column 6 and from column 7 to column 11 by transfer 5 μL to 45 μL DMSO to make following concentrations:
Fill a new 96-well plate with 247.5 μL of compound dilution buffer. Transfer 2.5 μL of serially diluted compounds from above plate to the new plate (1:100 dilution) as following:
Cell Growth • 1. LS174 T are always grown in MEM (ATCC Cat# 30-2003), 10% FBS (ATCC Cat# 30-2020) and additional 2 mM L-glutamine, at 37° C. and 5% CO2. • 2. Warm 0.05% Trypsin and Versine (Invitrogen Cat# 25300-054) at 37° C. water bath. • 3. […]
(In general: Cyclic AMP is a second messenger, typically raised through Gs and lowered through Gi signalling.)

By IC50 is commonly meant the concentration that gives 50% inhibition. A high value points to lower potency. On to `O=C(O)Cc1c(-c2ccc(S(=O)(=O)NC3CCCCC3)cc2)[nH]c2ccccc12` [Example 10(h), [2-(4-Cyclohexylsulfamoyl-phenyl)-1H-indol-3-yl]-acetic acid], for which the concentration for half-maximal inhibition (IC50) was 1160 nM.

Compound `COc1ccc(-c2[nH]c3ccccc3c2CC(=O)O)cc1S(=O)(=O)NC1CCCCC1` [Example 10(i), [2-(3-Cyclohexylsulfamoyl-4-methoxy-phenyl)-1H-indol-3-yl]-acetic acid] had an IC50 of 63 nM.

For the compound `O=C(O)Cc1c(-c2ccc(S(=O)(=O)NC3CCCCC3)c(Cl)c2)[nH]c2ccccc12` [Example 10(j), [2-(3-Chloro-4-cyclohexylsulfamoyl-phenyl)-1H-indol-3-yl]-acetic acid], inhibition was half-maximal at 1220 nM (IC50).

`Cc1ccc(-c2[nH]c3ccccc3c2CC(=O)O)cc1S(=O)(=O)NC1CCCCC1` [Example 10(k), [2-(3-Cyclohexylsulfamoyl-4-methyl-phenyl)-1H-indol-3-yl]-acetic acid] displayed a half-inhibitory concentration (IC50) of 2 nM.

`O=C(O)Cc1c(-c2cc(C(F)(F)F)cc(S(=O)(=O)NC3CCCCC3)c2)[nH]c2ccccc12` [Example 12, [2-(3-cyclohexylsulfamoyl-5-trifluoromethyl-phenyl)-1H-indol-3-yl]-acetic acid]: the IC50 is 232 nM.

`O=C(O)Cc1c(-c2ccc(Cl)c(NS(=O)(=O)c3ccccc3)c2)[nH]c2ccccc12` [Example 13, [2-(3-benzenesulfonylamino-4-chlorophenyl)-1H-indol-3-yl]-acetic acid]: the 50% inhibitory concentration (IC50) was 39 nM.

Compound `O=C(O)Cc1c(-c2ccc(Cl)c(NC(=O)C3CCCCC3)c2)[nH]c2ccccc12` [Example 14, {2-[4-chloro-3-(cyclohexanecarbonyl-amino)-phenyl]-1H-indol-3-yl}-acetic acid] returned an IC50 of 5860 nM.

`O=C(O)c1c(-c2ccc(Cl)c(S(=O)(=O)NC3CCCCC3)c2)[nH]c2ccccc12` [Example 15, 2-(4-Chloro-3-cyclohexylsulfamoyl-phenyl)-1H-indole-3-carboxylic acid] yielded an IC50 of 741 nM.

With `O=C(O)c1ccc2cc(-c3ccc(Cl)c(S(=O)(=O)NC4CCCCC4)c3)[nH]c2c1` [Example 16, 2-(4-Chloro-3-cyclohexylsulfamoyl-phenyl)-1H-indole-6-carboxylic acid], half-maximal inhibition (IC50) required 510 nM.
